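48-hour exposure; five concentrations; linearly interpolated endpoints. GI50 = concentration required for 50% inhibition of growth. Definition used: TGI = concentration required for complete inhibition of growth.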
Assays:
Assay in all cases: NCI tumour cell line growth inhibition, 48 h
HOP-92 NSCLC = test system: HOP-92 NSCLC
OVCAR-4 ovarian = test system: OVCAR-4 ovarian
NCI-H522 lung = test system: NCI-H522 lung
NCI-H460 lung = test system: NCI-H460 lung
MALME-3M melanoma = test system: MALME-3M melanoma
COLO 205 colon = test system: COLO 205 colon
HCT-15 colon = test system: HCT-15 colon
HCT-116 colon = test system: HCT-116 colon
SF-295 CNS = test system: SF-295 CNS
NCI-H23 lung = test system: NCI-H23 lung

| Structure (SMILES) | TGI (HOP-92 NSCLC) | TGI (OVCAR-4 ovarian) | TGI (NCI-H522 lung) | TGI (NCI-H460 lung) | TGI (MALME-3M melanoma) | TGI (COLO 205 colon) | TGI (HCT-15 colon) | TGI (HCT-116 colon) | TGI (SF-295 CNS) | TGI (NCI-H23 lung) | GI50 (HOP-92 NSCLC) | GI50 (OVCAR-4 ovarian) | GI50 (NCI-H522 lung) | GI50 (NCI-H460 lung) | GI50 (MALME-3M melanoma) | GI50 (COLO 205 colon) | GI50 (HCT-15 colon) | GI50 (HCT-116 colon) | GI50 (SF-295 CNS) | GI50 (NCI-H23 lung) |
| --- | --- | --- | --- | --- | --- | --- | --- | --- | --- | --- | --- | --- | --- | --- | --- | --- | --- | --- | --- | --- |
| CC1(CO)C(O)CCC2(C)C1C(O)CC1CC3CC12CCC3(O)CO (stereo unspecified) | > 225 µM | > 225 µM | > 225 µM | > 225 µM | > 225 µM | > 225 µM | > 225 µM | > 225 µM | > 104 µM | > 225 µM | – | – | – | – | – | – | – | – | – | – |
| O=c1ccn(Cc2ccccc2CCl)c(=O)[nH]1 | > 100 µM | > 100 µM | 43.9 µM | > 100 µM | 40.6 µM | 94.3 µM | 35.8 µM | 46 µM | 64.1 µM | 40.1 µM | – | – | – | – | – | – | – | – | – | – |
| Fc1ccc(Nc2ncc(-c3cc(F)c(Cl)cc3Cl)s2)cc1Cl | 13.3 µM | > 100 µM | 44.3 µM | 9.61 µM | 31.2 µM | > 100 µM | > 100 µM | 7.2 µM | 31 µM | 28.1 µM | 1.47 µM | 26.5 µM | 20.8 µM | 2.98 µM | 14 µM | 28.5 µM | 3.44 µM | 2.82 µM | 15.9 µM | 14.1 µM |
| CC(=O)Nc1c2sscc-2n(C)c1=O | 3.7 µM | 2.96 µM | 2.65 µM | 1.32 µM | 2.19 µM | 1.84 µM | 2.66 µM | 1.96 µM | 2.65 µM | 2.28 µM | – | – | – | – | – | – | – | – | – | – |
| OCC(O)C(O)C(O)C(O)CNCCO/N=C1/C(c2c(O)[nH]c3ccccc23)=Nc2ccccc21 (stereo unspecified) | 26.9 µM | > 50 µM | 33 µM | > 50 µM | 27.7 µM | 40.6 µM | > 50 µM | 38.2 µM | > 50 µM | 23.7 µM | – | – | – | – | – | – | – | – | – | – |
| O=C(CC(Cc1ccccc1)c1ccc(Oc2ccccc2)cc1)Nc1cccc(Cl)c1 (stereo unspecified) | 5.51 µM | > 100 µM | 26.5 µM | > 100 µM | > 100 µM | 19.3 µM | > 100 µM | > 100 µM | 15.4 µM | > 100 µM | – | – | – | – | – | – | – | – | – | – |
| COc1ccc(C2CC(c3ccc(NS(=O)(=O)c4cc([N+](=O)[O-])ccc4C)cc3)=NN2S(=O)(=O)c2cc([N+](=O)[O-])ccc2C)cc1 (stereo unspecified) | > 100 µM | > 100 µM | 79.4 µM | > 100 µM | > 100 µM | > 100 µM | > 100 µM | > 100 µM | > 100 µM | 78.7 µM | – | – | – | – | – | – | – | – | – | – |
| N#CC(NNC(=O)c1c(Cl)c(Cl)c(Cl)c(Cl)c1-c1nc2ccc(C(=O)c3ccccc3)cc2[nH]1)c1ccccc1 (stereo unspecified) | > 100 µM | > 100 µM | 18 µM | – | > 100 µM | 24.3 µM | > 100 µM | > 100 µM | 22.1 µM | 90.3 µM | – | – | – | – | – | – | – | – | – | – |
| O=[N+]([O-])c1ccc(NNN=Nc2ccc(-c3nc4ccccc4[nH]3)cc2)c([N+](=O)[O-])c1 | > 100 µM | > 100 µM | 61 µM | > 100 µM | > 100 µM | > 100 µM | > 100 µM | > 100 µM | > 100 µM | > 100 µM | – | – | – | – | – | – | – | – | – | – |
| COc1ccc(/C=C2\C[C@H]3[C@@H]4CC=C5C[C@@H](OC(C)=O)CC[C@]5(C)[C@H]4CC[C@]3(C)C2=O)cc1OC | > 100 µM | > 100 µM | > 100 µM | > 100 µM | > 100 µM | > 100 µM | > 100 µM | > 100 µM | > 100 µM | > 100 µM | – | – | – | – | – | – | – | – | – | – |
| COC1=CC(=O)c2c(c(COC(C)=O)cn2C)C1=O | 0.822 µM | 1.04 µM | 0.0405 µM | 0.835 µM | 0.117 µM | 0.0943 µM | 0.0522 µM | 0.216 µM | 0.0692 µM | 0.417 µM | – | – | – | – | – | – | – | – | – | – |
| C1=Nc2ccccc2Cn2nncc21 | > 100 µM | > 100 µM | > 100 µM | > 100 µM | > 100 µM | > 100 µM | > 100 µM | > 100 µM | – | > 100 µM | – | – | – | – | – | – | – | – | – | – |
| CC(C)NC(=O)OCc1nnn2c1CCC2 | > 100 µM | > 100 µM | > 100 µM | > 100 µM | > 100 µM | – | > 100 µM | > 100 µM | > 100 µM | > 100 µM | – | – | – | – | – | – | – | – | – | – |
| COc1ccc(N2C(=O)C(=O)N(C)C2=O)c2ccccc12 | – | > 10 µM | > 10 µM | > 10 µM | > 10 µM | > 10 µM | > 10 µM | > 10 µM | > 10 µM | > 10 µM | – | – | – | – | – | – | – | – | – | – |
| OC(c1ccccc1)C1CC2C=CC1C2 (stereo unspecified) | > 100 µM | > 100 µM | > 100 µM | > 100 µM | > 100 µM | > 100 µM | > 100 µM | > 100 µM | > 100 µM | > 100 µM | – | – | – | – | – | – | – | – | – | – |
| O=[N+]([O-])c1ccc(Cc2nc3cc4ccccc4cc3[nH]2)cc1C(F)(F)F | 41.1 µM | 46.8 µM | 70.6 µM | 38.5 µM | 25.1 µM | 34.3 µM | > 100 µM | 26.8 µM | 29 µM | 25.7 µM | – | – | – | – | – | – | – | – | – | – |
| Clc1ccc(C2CC(c3cccc(Nc4ccncc4)c3)=NN2c2ccccc2)cc1 (stereo unspecified) | 2.82 µM | 3.17 µM | 3.24 µM | 3.65 µM | 3.14 µM | 4.5 µM | 2.83 µM | 2.98 µM | 3.07 µM | 3.7 µM | 1.4 µM | 1.64 µM | 1.57 µM | 1.91 µM | 1.58 µM | 1.96 µM | 1.42 µM | 1.48 µM | 1.66 µM | 1.92 µM |
| COc1cc(/C=N/N=C(\N)NO)ccc1O | > 100 µM | > 100 µM | > 100 µM | > 100 µM | > 100 µM | > 100 µM | > 100 µM | > 100 µM | > 100 µM | > 100 µM | – | – | – | – | – | – | – | – | – | – |
| CC(C)C(=O)Nc1ccc(-c2nc(-c3cccc(OCCN4CCOCC4)c3)c(-c3ccnc(Br)c3)[nH]2)cc1 | 7.68 µM | > 100 µM | 48.7 µM | 25.4 µM | 3.3 µM | 6.59 µM | 4.67 µM | 13.5 µM | 2.88 µM | 18 µM | 2.32 µM | 4.46 µM | 3.26 µM | 3.98 µM | 1.58 µM | 2.42 µM | 2.02 µM | 3.04 µM | 1.09 µM | 3.12 µM |
| CC(C)(C)CNCCCNc1ccc(Cl)cc1 | 79.4 µM | > 100 µM | > 100 µM | > 100 µM | 53.9 µM | 45.3 µM | > 100 µM | > 100 µM | 69.1 µM | > 100 µM | – | – | – | – | – | – | – | – | – | – |
| Fc1cc(C2=Nn3c(CNc4ccc(Cl)cc4)nnc3S/C2=C\c2ccc(-c3ccc(Cl)cc3)o2)c(Cl)cc1Cl | – | – | > 100 µM | > 100 µM | 60.7 µM | 88.6 µM | > 100 µM | > 100 µM | 52.4 µM | > 100 µM | – | – | – | – | – | – | – | – | – | – |
| O=C(c1cc(Cl)cc(Cl)c1)N(Cc1cccnc1)C(=S)N(Cc1cccnc1)C(=O)c1cc(Cl)cc(Cl)c1 | > 100 µM | 89.6 µM | 49 µM | > 100 µM | > 100 µM | 38.5 µM | 83.3 µM | 96.5 µM | > 100 µM | > 100 µM | – | – | – | – | – | – | – | – | – | – |
| CNCCCn1c2c(c3ccc(Cl)cc3c1=O)C(=O)c1cc(OC)cnc1-2 | 2.75 µM | 2.93 µM | – | 1.25 µM | – | – | – | – | 1.38 µM | – | 1.19 µM | 1.27 µM | – | 0.0462 µM | – | – | – | – | 0.132 µM | – |
| CSC1=C(SC)C(=O)c2cn(C)c(=O)cc2C1=O | 2.12 µM | 3.74 µM | 2.19 µM | 32 µM | 5.41 µM | 2.89 µM | 4.78 µM | 3.33 µM | 26 µM | 11.1 µM | – | – | – | – | – | – | – | – | – | – |
| O=c1ccc2c(Cl)cccc2o1 | > 100 µM | > 100 µM | > 100 µM | > 100 µM | > 100 µM | > 100 µM | – | > 100 µM | > 100 µM | > 100 µM | – | – | – | – | – | – | – | – | – | – |

From PubChem BioAssay (NCI)
